{"source": "patent US12553889B2", "about": "“Small molecules targeting the intrinsically disordered structural ensemble of α-synuclein protect against diverse α-synuclein mediated dysfunctions” (The Regents of the University of California, priority 2019, dated 2026)", "key": {"[1]": {"system": "H4 neuroglioma cells over-expressing αSyn", "assay": "Phagocytosis assay", "type": "cell-based, human", "conditions": "for phagocytosis restored, percent of that in cells with endogenous αSyn levels (control): phagocytosis inhibited by αSyn overexpression; for reversal of αSyn mediated inhibition of phagocytosis: 100 nM", "procedure": "A human neuroglioma H4 cell-derived cell line stably over-expressing αSyn from a tetracycline inducible promoter was generated using the tet inducible TRex system (Invitrogen division of Life Technologies) and grown in serum-free X-VIVO media (Lonza Group, Basel, Switzerland). Cells were seeded in 96-well plates at densities yielding 75 to 90% confluency during the phagocytosis assay. The next day, compound was added along with 5 μg/ml tetracycline to induce αSyn overexpression. Cells were cultured overnight and the next day were fed […] red fluorescent beads (Invitrogen, Carlsbad, CA) for 90 minutes at a cell-to-bead ratio of 1:10. Plates were gently washed with 100 μl/well media twice, fixed and stained with HEMA3 (Thermo Fisher, Waltham, MA). Plates were dried overnight and read on an ArrayScan (Thermo Fisher, Waltham, MA). As the HEMA3 stain absorbs light, the internalized beads are less fluorescent than the outside beads. Tet/non-tet and 484228 samples were run on each plate."}, "[2]": {"system": "H4 neuroglioma cells over-expressing αSyn", "conditions": "earlier report; cited from earlier work"}, "[3]": {"molecular_target": "T1, αSyn (Homo sapiens, UniProt P37840)", "parameters": "made in house; host or cells: E. coli", "conditions": "prior study (Toth et al 2014); cited from earlier work"}, "[4]": {"molecular_target": "T1, αSyn", "parameters": "made in house; host or cells: E. coli", "conditions": "prior study (Toth et al 2014); cited from earlier work", "remark": "listed apart in the source"}, "[5]": {"molecular_target": "T1, αSyn", "assay": "αSyn fibrillization assay (Thioflavin T fluorescence)", "type": "biochemical", "parameters": "made in house; host or cells: E. coli BL21(DE3), pET-21d", "conditions": "compound at 300 μM, 70 μM αSyn, vs 0.5% DMSO control", "procedure": "Fibrillization assays. Prior to each aggregation assay, purified αSyn at 5 mg/mL was treated with 6M guanidine and dialyzed 36 hours in a 3500 MW cutoff Slide-A-lyzer with three changes of 20 mM sodium phosphate and 100 mM NaCl pH 7.4 buffer. αSyn was centrifuged at 130,000 g for 40 minutes in a Beckman Ultracentrifuge to remove seeding species and supernatant used for assays. For initial testing, 60 mM compound in DMSO was diluted to 300 μM in 0.5% DMSO and controls contained equivalent DMSO concentrations. Assay samples contained 20 μM Thioflavin T, filtered through a 0.45 μm Acrodisc filter prior to each assay, 70 μM αSyn in 20 mM sodium phosphate and 100 mM NaCl pH 7.4. One teflon bead, (0.125″ PTFE, Grade 2 polished) was placed in each well of a 96 well black with clear bottom assay plate (Corning) in a total volume of 500 μL. The plate was sealed with Mylar and parafilm, placed at 37° C. in a Tecan F200Pro Plate Reader and shaken at an amplitude of 6 mm for 120 hours continuously except for a brief time during reading of the plate. Thioflavin T fluorescence was detected by excitation at 440 nm and reading emissions at 485 nm each 60 minutes throughout the assay. To generate αSyn seeds for the seeding assays, αSyn at 10 mg/mL was incubated with stirring at 43° C. for 24 hours followed by exhaustive sonication. 1% (by mass) of seeds were added to the fibrillization assay. Samples were plated in quadruplicate, and the replicates averaged for each experiment for plotted data. Data were analyzed in Excel using XL-fit sigmoidal model #600 and when normalized, comparing fluorescence values at 50 hours for compounds as a percentage of DMSO control.\nα-Syn for the Fibrillization assay. Wildtype human αSyn was produced from a pET-21d plasmid (Millipore, Burlington, MA) in E. coli BL21(DE3) cells induced by addition of 1 mM […] and incubated at 16° C. overnight. Cells were harvested by centrifugation at 4,000×g for 10 minutes and stored at −80° C. Frozen cells expressing αSyn protein were resuspended in 50 mM Tris, pH 7.5, 1 mM TCEP, 1 mM EDTA, and 1 mM L-Methionine and lysed using a microfluidizer. Lysate was centrifuged at 7000×g for 0.5 hours at 21° C. The supernatant was boiled in a water bath for 15 minutes, cooled on ice and centrifuged at 45,000 g for 30 min. The supernatant was filtered through a 0.2 μm Corning filter and subjected to ion exchange chromatography using a Capto ImpRes Q (GE Healthcare, Upssala, Sweden) anion exchange (IEX) column at ambient temperature. The column was eluted with a gradient of 100 column volumes from 0 to 1M NaCl using an AKTA Explorer 100 Liquid Chromatography System (GE Healthcare, Uppsala, Sweden). Pure αSyn fractions were desalted to 50 mM KPO4, pH 7.5 and 50 mM NaCl using PD-10 columns (GE Healthcare, Chicago, IL) and concentrated to 5 mg/mL or 10 mg/ml (3K MWCO, Amicon Ultra, Millipore, Burlington, MA).\nStatistical Analysis of compound activity in Fibrillization assays. For the analyses of compound activity in the αSyn fibrillization assay, the relative fluorescence unit (RFU) data obtained from compounds were compared to those of DMSO, to identify those that are statistically different from DMSO at various time points. Each experiment contained 4 replicates of each compound and of DMSO control. […] A repeated measures analysis of variance was performed on logarithmic transformed data using a linear mixed effects model which included Compound, Time, Replicate (Compound) and Compound*Time. The covariance structure across time that minimized the corrected Akaike Information Criterion (AICC) was used and the Kenward and Roger method was used to determine the appropriate degrees of freedom. Each compound mean was compared to the DMSO mean using Bonferroni multiplicity adjusted t-tests. Statistical analyses were conducted using the MIXED procedure in SAS 9.1 (SAS Institute Inc. Cary, NC, USA). Statistical significance refers to p-value<0.05."}}, "note": "“Also recorded” adds a separate entry of the source."}
{"smiles": "O=S(=O)(Nc1ccc(F)cc1)c1ccccc1", "note": "[Compound 484228, N-(4-fluorophenyl)benzenesulfonamide]", "values": [{"measurement": "phagocytosis restored, percent of that in cells with endogenous αSyn levels (control)", "setting": "[1]", "value": "≤ 80", "unit": "%"}, {"measurement": "restoration of phagocytosis in the face of αSyn overexpression", "setting": "[2]", "value": "restored normal phagocytosis"}, {"measurement": "reversal of αSyn over-expression mediated neurodegeneration", "setting": "[3]", "value": "protective activity"}, {"measurement": "impact on aggregation of the recombinant protein", "setting": "[4]", "value": "without impact on aggregation"}]}
{"smiles": "CNC(=O)C[C@H](N)Cc1cccc2ccccc12", "note": "[Compound 573416, (R)-3-amino-N-methyl-4-(naphthalen-1-yl)butanamide]", "values": [{"measurement": "impact on αSyn fibrillization (thioflavin fluorescence signal)", "setting": "[5]", "value": "no impact on αSyn fibrillization"}]}
{"smiles": "NC(=O)[C@H](Cc1c[nH]cn1)NC(=O)c1ccccn1", "note": "[Compound 573418, (S)-N-(1-amino-3-(1H-imidazol-4-yl)-1-oxopropan-2-yl)picolinamide]", "values": [{"measurement": "reversal of αSyn mediated inhibition of phagocytosis", "setting": "[1]", "value": "complete reversal"}]}
{"smiles": "NC(=O)[C@@H](NC(=O)c1csc(-c2ccccc2)n1)C1CCCCC1", "note": "[Compound 573419, (S)-N-(2-amino-1-cyclohexyl-2-oxoethyl)-2-phenylthiazole-4-carboxamide]", "values": [{"measurement": "reversal of αSyn mediated inhibition of phagocytosis", "setting": "[1]", "value": "complete reversal"}]}
{"smiles": "CNC(=O)CC(N)c1ccc(-c2ccccc2)cc1", "note": "(stereo not drawn) [Compound 581674, 3-([1,1′-biphenyl]-4-yl)-3-amino-N-methylpropanamide]", "values": [{"measurement": "phagocytosis restored, percent of that in cells with endogenous αSyn levels (control)", "setting": "[1]", "value": 100, "unit": "%"}, {"measurement": "impact on αSyn fibrillization (thioflavin fluorescence signal)", "setting": "[5]", "value": "inhibit fibrillization; also recorded: blocks αSyn fibrillization"}]}
